The text below walks through data of US7816361B2, “Immuno inhibitory pyrazolone compounds” (Medigene Limited, priority 2003, dated 2010).

Like-named read-outs stand apart in the source and are kept apart here.

Test [1] concerns the target T1, Biotinylated human CD80 (hCD80-BT) (Homo sapiens, UniProt P33681).
T1 construct: biotin (biotinylation)
T1 sequence (P33681 35-242 limits assumed): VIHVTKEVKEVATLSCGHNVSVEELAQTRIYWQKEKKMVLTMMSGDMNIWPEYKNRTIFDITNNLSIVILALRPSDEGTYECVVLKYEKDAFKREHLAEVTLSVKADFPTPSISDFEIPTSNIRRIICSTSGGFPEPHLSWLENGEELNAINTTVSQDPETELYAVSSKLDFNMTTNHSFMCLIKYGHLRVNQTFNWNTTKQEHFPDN
The following applies: endogenous protein ligand CD28, cited from earlier work.

The target in the next test is T2, CD80-CD28 interaction (Homo sapiens, UniProt P33681).
T2 sequence (P33681 35-242 limits assumed): T1 sequence (P33681 35-242 limits assumed)
The test is described as follows: Homogenous Time Resolved Fluorescence (HTRF) assay, cell free. It is filed as binding. The conditions noted are these: inhibition of CD80-CD28 interaction; concentration series 100 μM-1.7 nM; 4 hours at room temperature; read-out: Activity Rating (EC50) in the HTRF assay. How it is done: Homogenous Time Resolved Fluorescence Assay
The examples described above were tested in a cell free Homogenous Time Resolved Fluorescence (HTRF) assay to determine their activity as inhibitors of the CD80-CD28 interaction.
In the assay, europium and allophycocyanin (APC) are associated with CD28 and CD80 indirectly (through antibody linkers) to form a complex, which brings the europium and APC into close proximity to generate a signal. The complex comprises the following six proteins: fluorescent label 1, linker antibody 1, CD28 fusion protein, CD80 fusion protein, linker antibody 2, and fluorescent label 2. The table below describes these reagents in greater detail.
On formation of the complex, europium and APC are brought into proximity and a signal is generated.
Non-specific interaction was measured by substituting a mouse Fab fragment (C215) for the CD80 mouse Fab fragment fusion protein (1.9 μg/ml). The assay was carried out in black 384 well plates in a final volume of 30 μl. Assay buffer: 50 mM Tris-HCl, 150 mM NaCl pH7.8, containing 0.1% BSA (w/v) added just prior to use.
Compounds were added to the above reagents in a concentration series ranging between 100 μM-1.7 nM. The reaction was incubated for 4 hours at room temperature. Dual measurements were made using a Wallac Victor 1420 Multilabel Counter. First measurement: excitation 340 nm, emission 665 nm, delay 50 μs, window time 200 μs. second measurement: excitation 340 nm, emission 615 nm, delay 50 μs, window time 200 μs. Counts were automatically corrected for fluorescence crossover, quenching and background. The EC50 activities of compounds tested are recorded as: EC50: *=>10 μM, **=1-10 μM, ***=<1 μM.
A general note: In TR-FRET formats the signal depends on donor and acceptor labels being close together.

Test [2] concerns the target T1, Biotinylated human CD80 (hCD80-BT). The test is described as follows: Biacore biomolecular interaction analysis (BIAcore S51). It is filed as binding. The following applies: BIAcore S51, immobilised hCD80-BT. An excerpt: Assay Protocols The Use of Biacore Biomolecular Interaction Analysis
Biotinylated human CD80 (hCD80-BT) is a recombinant soluble form of a membrane bound receptor molecule (CD80) which binds to CD28 to initiate T cell activation. The interaction between CD80 and CD28 has been extensively investigated (Collins et al., 2002). Biotinlyated human HLA-A2-tax is the recombinant soluble form of a membrane bound receptor molecule that has been used in this example as a control protein, and is not expected to interact with the compounds.
The BIAcore S51™ system was used for screening the compounds of Examples 1-4 above. A series S sensor chip CM5 was docked onto the BIAcore S51™. Streptavidin was coupled to the carboxymethyl surface using standard amine coupling. The chip surface was activated with 0.2M EDC/0.05M NHS, followed by binding of streptavidin (0.25 mg/ml in 10 mM sodium acetate pH 5.0) and saturation of unoccupied sites with […].
The BIAcore S51 sensor chip has two separate sensor spots for immobilisation of proteins. hCD80-BT was immobilised on the streptavidin-coated surface of one sensor spot until a response of approximately 3000 RU was observed. A protein to control for non-specific binding of the compound was immobilised on a second sensor spot. The control protein used for these experiments was a biotinylated, soluble form of the human HLA protein.
Dilution series of compounds (1000 nM-0.05 nM) were prepared in running buffer (10 mM, pH 7.4, 150 mM NaCl, 0.005% P20; 5% DMSO).
BIAcore S51™ was run at a flow rate of 30 μl/min using running buffer. Compounds and DMSO standard solutions for correction of data for solvent effects were injected. Data were recorded automatically and were analysed using BIAcore S51 Evaluation software.
For orientation: SPR reads the build-up and loss of mass on a sensor chip optically.

In test [3] the test system is IL-2 production by human Jurkat T cells (with Raji cells, anti-CD3). The test is described as follows: Inhibition of production of interleukin-2 (IL-2) by human Jurkat T cells. The test is classed as cell-based. The following applies: 5 hours. How it is done: Inhibition of Production of Interleukin-2 (IL-2) by Human Jurkat T Cells.
Human Raji cells were dispensed at a concentration of 2×10^5 cells per well in RPMI-1640 medium supplemented with 10% fetal calf serum, 1% penicillin/streptomycin, 1% glutamine (RPMI medium) in a 96-well round bottom microtitre plate. Compounds under investigation (dissolved in 100% DMSO) were diluted to eight-fold the desired final concentration in RPMI medium and added to the required final concentration for a total volume of 200 μl per well. After 20 minutes incubation at 37° C., Jurkat T cells were added at a concentration of 2×10^5 cells per well. Monoclonal antibody to CD3 (UCHT1, R&D Systems) was added to the cultures at a final concentration of 1 μg per ml, and where indicated, monoclonal antibody to CD28 (CD28.2, BD-Pharmingen) was also added at a concentration of 2.5 μg per ml. Cells were cultured at 37° C. for 5 hours, after which the plates were centrifuged and the supernatants harvested for IL-2 ELISA assay using the IL-2 Eli-pair kit (DIACLONE Research, Besancon, France) according to the manufacturers instructions.

A word on the Kd: it is a measure of binding affinity in units of concentration. As to “CD28: the endogenous protein ligand of CD80”, the “off-rate of CD80-CD28 interaction” value in test [1] is on record as “greater than 0.2 s^−1”. Moreover, the Kd in test [1] (read-out: KD of CD80-CD28 interaction) is 4750 nM.

The EC50 is the concentration that produces a half-maximal response. As for `O=C(NCCCNC1CCCCC1)c1ccc(-n2[nH]c(-c3cccc(F)c3)cc2=O)cc1` [Example 27], the EC50 on CD80-CD28 interaction was in the range of 1000 to 10000 nM.

For `O=C(NCCCCN1CCCC1)c1ccc(-n2[nH]c(-c3ccccc3)cc2=O)cc1` [Example 8], the EC50 on CD80-CD28 interaction was below 1000 nM.

Regarding `CN(C)CCCNC(=O)c1ccc(-n2[nH]c(-c3cnccn3)cc2=O)cc1` [Example 30], at CD80-CD28 interaction, the EC50 is below 1000 nM.

For `O=C(NCCCNC1CCCCC1)c1ccc(-n2[nH]c(-c3ccccn3)cc2=O)cc1` [Example 13], the EC50 on CD80-CD28 interaction was 1000 to 10000 nM.

In the case of `CN(C)CCCNC(=O)c1ccc(-n2[nH]c(-c3cccnc3)cc2=O)cc1` [Example 12], the EC50 on CD80-CD28 interaction was in the range of 1000 to 10000 nM.

For `CN1C(C)(C)CC(NC(=O)c2ccc(-n3[nH]c(-c4cc5ccccc5o4)cc3=O)cc2)CC1(C)C` [Example 34], the EC50 at CD80-CD28 interaction was 1000 to 10000 nM.

For the compound `CN1C(C)(C)CC(NC(=O)c2ccc(-n3[nH]c(-c4ccco4)cc3=O)cc2)CC1(C)C` [Example 19], at CD80-CD28 interaction, the EC50 is below 1000 nM.

For the compound `O=C(NCCCNC1CCCCC1)c1ccc(-n2[nH]c(-c3ccco3)cc2=O)cc1` [Example 14], the 50% effective concentration (EC50) at CD80-CD28 interaction was below 1000 nM.

In the case of `O=C(NCCCNC1CCCCC1)c1ccc(-n2[nH]c(-c3cccnc3)cc2=O)cc1` [Example 15], the EC50 at CD80-CD28 interaction lay in the range of 1000 to 10000 nM.

`CN(C)CCCNC(=O)c1ccc(-n2[nH]c(-c3ccccc3)cc2=O)cc1` [Example 5]: at CD80-CD28 interaction, the EC50 fell in the range of 1000 to 10000 nM.

As for `O=C(NCCCCN1CCCC1)c1ccc(-n2[nH]c(-c3ccoc3)cc2=O)cc1` [Example 22], on CD80-CD28 interaction, the EC50 is 1000 to 10000 nM.

Regarding `CN(C)CCCNC(=O)c1ccc(-n2[nH]c(-c3cc4ccccc4o3)cc2=O)cc1` [Example 32], the EC50 at CD80-CD28 interaction lay in the range of 1000 to 10000 nM.

Consider `CN1C(C)(C)CC(NC(=O)c2ccc(-n3[nH]c(-c4ccno4)cc3=O)cc2)CC1(C)C` [Example 2, 4-(3-Isoxazol-5-yl-5-oxo-2,5-dihydro-pyrazol-1-yl)-N-(1,2,2,6,6-pentamethyl-piperidin-4-yl)-benzamide], for which the EC50 at CD80-CD28 interaction is above 10000 nM.

Take `O=C(NCCCNC1CCCCC1)c1ccc(-n2[nH]c(-c3cc4ccccc4o3)cc2=O)cc1` [Example 33]: the EC50 at CD80-CD28 interaction lay within 1000 to 10000 nM.

Take `O=C(NCCCCN1CCCC1)c1ccc(-n2[nH]c(-c3ccccn3)cc2=O)cc1` [Example 24]: the EC50 on CD80-CD28 interaction is below 1000 nM.

On to `Cc1c(-c2ccco2)[nH]n(-c2ccc(C(=O)NC3CC(C)(C)N(C)C(C)(C)C3)cc2)c1=O` [Example 3, 4-(3-Furan-2-yl-4-methyl-5-oxo-2,5-dihydro-pyrazol-1-yl)-N-(1,2,2,6,6-pentamethyl-piperidin-4-yl)-benzamide], for which the EC50 at CD80-CD28 interaction was above 10000 nM.

On to `CN1C(C)(C)CC(NC(=O)c2ccc(-n3[nH]c(-c4ccccc4)cc3=O)cc2)CC1(C)C` [Example 7], for which the EC50 on CD80-CD28 interaction fell in the range of 1000 to 10000 nM. Besides, in test [2], the Kd is below 100 nM and the “off-rate on CD80” value is 2×10^−2.

In the case of `CN(C)CCCNC(=O)c1ccc(-n2[nH]c(-c3ccccn3)cc2=O)cc1` [Example 10], on CD80-CD28 interaction, the EC50 is below 1000 nM.

For `CN(C)CCCNC(=O)c1ccc(-n2[nH]c(-c3ccoc3)cc2=O)cc1` [Example 17], the EC50 on CD80-CD28 interaction lay in the range of 1000 to 10000 nM.

For the compound `O=C(NCCCCN1CCCC1)c1ccc(-n2[nH]c(-c3cnccn3)cc2=O)cc1` [Example 29], the EC50 at CD80-CD28 interaction lay within 1000 to 10000 nM.

Consider `O=C(NCCCCN1CCCC1)c1ccc(-n2[nH]c(-c3ccco3)cc2=O)cc1` [Example 21], for which the EC50 at CD80-CD28 interaction lay within 1000 to 10000 nM.

With `CN1C(C)(C)CC(NC(=O)c2ccc(-n3[nH]c(-c4ccccn4)cc3=O)cc2)CC1(C)C` [Example 16], the EC50 on CD80-CD28 interaction was below 1000 nM.

`O=C(NCCN1CCN(Cc2ccccc2)CC1)c1ccc(-n2[nH]c(-c3ccccc3)cc2=O)cc1` [Example 6]: the EC50 on CD80-CD28 interaction was above 10000 nM.

Turning to `CN1C(C)(C)CC(NC(=O)c2ccc(-n3[nH]c(-c4ccoc4)cc3=O)cc2)CC1(C)C` [Example 20], on CD80-CD28 interaction, the EC50 lay within 1000 to 10000 nM.

For `CN(C)CCCNC(=O)c1ccc(-n2[nH]c(-c3ccco3)cc2=O)cc1` [Example 11], the EC50 at CD80-CD28 interaction is below 1000 nM. Moreover, in test [2], the Kd is below 100 nM and the “off-rate on CD80” value was 2×10^−2.

In the case of `O=C(NCCCNC1CCCCC1)c1ccc(-n2[nH]c(-c3ccccc3)cc2=O)cc1` [Example 9], the EC50 at CD80-CD28 interaction is 1000 to 10000 nM.

For `CN1C(C)(C)CC(NC(=O)c2ccc(-n3[nH]c(-c4cccnc4)cc3=O)cc2)CC1(C)C` [Example 23], on CD80-CD28 interaction, the EC50 is 1000 to 10000 nM.

Regarding `CN1C(C)(C)CC(NC(=O)c2ccc(-n3[nH]c(-c4cccc(F)c4)cc3=O)cc2)CC1(C)C` [Example 28], the EC50 on CD80-CD28 interaction is below 1000 nM.

In the case of `O=C(NCCCNC1CCCCC1)c1ccc(-n2[nH]c(-c3ccoc3)cc2=O)cc1` [Example 18], the EC50 on CD80-CD28 interaction is below 1000 nM.

For the compound `O=C(NCCCCN1CCCC1)c1ccc(-n2[nH]c(-c3cc4ccccc4o3)cc2=O)cc1` [Example 31], the EC50 at CD80-CD28 interaction lay within 1000 to 10000 nM.

In general, inhibition refers to the percentage by which the read-out fell short of the control. High values mean a response far below the control, low ones a response near the control. On to `CN(C)CCCNC(=O)c1ccc(-n2[nH]c(-c3cccc(F)c3)cc2=O)cc1` [Example 26], for which the EC50 on CD80-CD28 interaction is below 1000 nM. In addition, in test [3], the inhibition at 30 µM is 52%.

Consider `O=C(NCCCCN1CCCC1)c1ccc(-n2[nH]c(-c3cccnc3)cc2=O)cc1` [Example 25], for which the EC50 at CD80-CD28 interaction lay within 1000 to 10000 nM.
